Reference: patent US9956236B2, “Methods for increasing immune responses using agents that directly bind to and activate IRE-1” (Cornell University, priority 2011, dated 2018)

Legend:
recombinant IRE1 protein = recombinant IRE1 protein (Homo sapiens, UniProt O75460); assay: In vitro fluorescent splicing reporter assay with recombinant IRE1 protein; assay type: biochemical; settings: doses of PIs ranging from 20 uM to 0.63 uM; fluorescence over time
CD86 and CD40 = assay: Co-stimulatory ligand (CD86 and CD40) expression with Nelfinavir and synthetic TLR4 agonist MPLA; assay type: cell-based; settings: Nelfinavir plus TLR4 agonist MPLA compared to TLR4 agonist alone
IL-6 = IL-6 production with Nelfinavir and synthetic TLR4 agonist MPLA; assay type: cell-based; settings: Nelfinavir plus TLR4 agonist MPLA compared to TLR4 agonist alone
Description: FIG. 1. HIV-protease inhibitors (PIs) trigger robust IRE1 and XBP1 activation and synergize with TLR4 activation to produce cytokines and co-stimulatory molecules. A) XBP1 mRNA maturation (XBP1s) in J774 cells stimulated with dose dependent concentrations of HIV-PIs (similar data were obtained in primary mouse M0s, and various M0 cell lines of human and mouse origin). B) Cell extracts of cells stimulated with Tunicamycin (TM) or HIV-protease inhibitors were monitored for IRE1 activation by phosphorylation in a Phos-tag SDS-PAGE gel, CHOP induction and ATF6a processing. C) Realtime PCR of CHOP induction by the ER-stress inducer TM and the HIV-PI Nelfinavir (NFR) was analyzed in PERK proficient and deficient MEFs. […]
XBP1 mRNA maturation (XBP1s) in J774 cells stimulated with dose dependent concentrations of HIV-PIs (similar data were obtained in primary mouse M0s, and various M0 cell lines of human and mouse origin) see FIG. 1, panel A. Cell extracts of cells stimulated with Tunicamycin (TM) or HIV-protease inhibitors were monitored for IRE1 activation by phosphorylation in a Phos-tag SDS-PAGE gel, CHOP induction and ATF6a processing, see FIG. 1, panel B. Realtime PCR of CHOP induction by the ER-stress inducer TM and the HIV-PI Nelfinavir (NFR) was analyzed in PERK proficient and deficient MEFs see FIG. 1, panel C.

Chain of recombinant IRE1 protein (O75460 19-977, species assumed): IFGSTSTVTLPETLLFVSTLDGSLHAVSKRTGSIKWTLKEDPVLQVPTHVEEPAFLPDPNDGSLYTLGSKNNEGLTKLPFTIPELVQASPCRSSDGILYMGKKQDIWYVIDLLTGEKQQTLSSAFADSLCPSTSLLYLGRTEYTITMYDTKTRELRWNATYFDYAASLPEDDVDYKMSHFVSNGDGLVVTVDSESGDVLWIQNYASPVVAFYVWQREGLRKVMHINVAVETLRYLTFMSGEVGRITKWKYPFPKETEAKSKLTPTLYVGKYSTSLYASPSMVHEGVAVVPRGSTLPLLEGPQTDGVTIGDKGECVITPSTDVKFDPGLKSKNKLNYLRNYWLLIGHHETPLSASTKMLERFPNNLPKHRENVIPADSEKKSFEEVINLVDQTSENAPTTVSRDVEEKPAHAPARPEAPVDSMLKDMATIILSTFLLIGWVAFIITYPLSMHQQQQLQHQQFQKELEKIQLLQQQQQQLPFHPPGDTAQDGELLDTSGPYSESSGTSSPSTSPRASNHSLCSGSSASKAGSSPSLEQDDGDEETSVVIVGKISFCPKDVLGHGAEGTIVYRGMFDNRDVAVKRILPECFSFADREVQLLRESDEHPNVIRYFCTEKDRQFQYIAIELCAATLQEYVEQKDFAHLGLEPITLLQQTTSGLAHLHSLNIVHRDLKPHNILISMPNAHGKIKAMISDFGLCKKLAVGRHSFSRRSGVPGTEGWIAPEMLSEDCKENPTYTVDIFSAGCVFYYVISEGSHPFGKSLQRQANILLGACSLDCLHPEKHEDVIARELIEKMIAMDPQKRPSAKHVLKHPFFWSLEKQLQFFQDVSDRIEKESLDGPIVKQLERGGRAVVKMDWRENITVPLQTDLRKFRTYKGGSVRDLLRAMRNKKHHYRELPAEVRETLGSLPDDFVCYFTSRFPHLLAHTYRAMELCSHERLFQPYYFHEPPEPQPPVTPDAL

CC(C)CN(C[C@@H](O)[C@H](Cc1ccccc1)NC(=O)O[C@H]1CCOC1)S(=O)(=O)c1ccc(N)cc1 [amprenivir, amprenavir]
induction of xbp1 splicing (recombinant IRE1 protein): not

CC(C)c1nc(CN(C)C(=O)N[C@H](C(=O)N[C@@H](Cc2ccccc2)C[C@H](O)[C@H](Cc2ccccc2)NC(=O)OCc2cncs2)C(C)C)cs1 [ritonivir, ritonavir]
induction of xbp1 splicing (recombinant IRE1 protein): marked induction

Cc1c(O)cccc1C(=O)N[C@@H](CSc1ccccc1)[C@H](O)CN1C[C@H]2CCCC[C@H]2C[C@H]1C(=O)NC(C)(C)C [Nelfinavir]
CD40 expression (CD86 and CD40): Increased
CD86 expression (CD86 and CD40): Increased
induction of xbp1 splicing (recombinant IRE1 protein): marked induction
IL-6 production (IL-6): Increased
